In series [1] the test system is corn planthopper (Peregrinus maidis). As to the kind of experiment: whole plant or invertebrate. In kind it is in vivo. The conditions noted are these: 144 h. The protocol:
For evaluating control of corn planthopper (Peregrinus maidis) through contact and/or systemic means, the test unit consisted of a small open container with a 3-4-day-old maize plant (spike) inside. White sand was added to the top of the soil prior to application. Test compounds were formulated and sprayed at 250 and 50 ppm and replicated three times as described for Test A. After spraying, the test units were allowed to dry for 1 h before they were post-infested with ˜15-20 nymphs (18 to 21 day old) by sprinkling them onto the sand with a salt shaker. A black, screened cap was placed on the top of the cylinder. The test units were held for 6 days in a growth chamber at 22-24° C. and 50-70% relative humidity. Each test unit was then visually assessed for insect mortality.

Series [2] has as its system green peach aphid (Myzus persicae). The series is described as follows: whole plant or invertebrate. In kind it is in vivo. As to conditions: 144 h, sprayed at 250 ppm, radish plant, 6 days. From the text: For evaluating control of green peach aphid (Myzus persicae) through contact and/or systemic means, the test unit consisted of a small open container with a 12-15-day-old radish plant inside. This was pre-infested by placing on a leaf of the test plant 30-40 aphids on a piece of leaf excised from a culture plant (cut-leaf method). The aphids moved onto the test plant as the leaf piece desiccated. After pre-infestation, the soil of the test unit was covered with a layer of sand.
Test compounds were formulated and sprayed at 250 ppm as described for Test A. The applications were replicated three times. After spraying of the formulated test compound, each test unit was allowed to dry for 1 h and then a black, screened cap was placed on top. The test units were held for 6 days in a growth chamber at 19-21° C. and 50-70% relative humidity. Each test unit was then visually assessed for insect mortality.

Series [3] relates to potato leafhopper (Empoasca fabae). As to the kind of experiment: whole plant or invertebrate. In kind it is in vivo. As to conditions: 144 h, Soleil bean plant, 6 days; for mortality at 50 ppm: sprayed at 50 ppm; for mortality at 250 ppm: sprayed at 250 ppm. On the procedure:
For evaluating control of potato leafhopper (Empoasca fabae) through contact and/or systemic means, the test unit consisted of a small open container with a 5-6-day-old Soleil bean plant (primary leaves emerged) inside. White sand was added to the top of the soil and one of the primary leaves was excised prior to application.
Test compounds were formulated and sprayed at 250 and 50 ppm, and the tests were replicated three times as described for Test A. After spraying, the test units were allowed to dry for 1 h before they were post-infested with 5 potato leafhoppers (18-21-day-old adults). A black, screened cap was placed on the top of the cylinder. The test units were held for 6 days in a growth chamber at 24° C. and 70% relative humidity. Each test unit was then visually assessed for insect mortality.

Series [4] has as its system cat flea (Ctenocephalides felis). As to the kind of experiment: whole plant or invertebrate. In kind it is in vivo. As to conditions: 20 μL of 500 ppm solution on filter paper, adult fleas, 48 hours. On the procedure: For evaluating control of the cat flea (Ctenocephalides felis), a test compound was solubilized in acetone:water (75:25) to a final test rate of 500 ppm. Then 20 μL of the 500 ppm solution was applied to filter paper in the bottom of a tube. The tube was allowed to dry for 3 hours. Then approximately 10 adult fleas were added to the tube and the tube was capped. The fleas were evaluated for mortality 48 hours later.

Series [5] has the same test system. As to the kind of experiment: whole plant or invertebrate. In kind it is in vivo. The conditions noted are these: 30 ppm in bovine blood, adult fleas, 72 h. The protocol:
For evaluating control of the cat flea (Ctenocephalides felis), a test compound was solubilized in propylene glycol/glycerol formal (60:40) and then diluted in bovine blood to a final test rate of 30 ppm. The treated blood was placed in a tube with the bottom of the tube covered with a membrane. Approximately 10 adult cat fleas were allowed to feed through the membrane on the treated blood. The adult fleas were evaluated for mortality 72 h later.

[6] abbreviates: sprayed at 50 ppm, maize plant, 6 days, read-out: mortality.
The mark [7] stands for this setting: sprayed at 250 ppm, maize plant, 6 days, read-out: mortality.

Structures can show the parent of a compound that is named as a salt. Where two headings read alike, the source gives them in different places.

These results are taken from patent US8552007B2, “Mesoionic pesticides” (E.I. du Pont de Nemours and Company, priority 2008, dated 2013).

The compound `O=c1cc([O-])[n+](CC(F)(F)F)c2ccccn12` (as salt: salt) [Compound 610, 2-hydroxy-4-oxo-1-(2,2,2-trifluoroethyl)-4H-pyrido[1,2-a]-pyrimidinium inner salt] showed a melting point of 214 to 215 °C.
For the compound `O=c1c(I)c([O-])[n+](CC(F)(F)F)c2ccccn12` [Compound 111], the mortality at 50 ppm in series [1] (setting [6]) and in series [3] was at least 80% throughout. The mortality at 250 ppm in series [1] (setting [7]), in series [2] and in series [3] was at least 80% throughout.
As for `CC(C)c1c([O-])[n+](CC(F)(F)F)c2ccccn2c1=O` [Compound 115], the mortality at 250 ppm in series [1] (setting [7]) was at least 80%. Moreover, the mortality at 500 ppm in series [4] was at least 50%.
`O=c1c(-c2ccncc2Cl)c([O-])[n+](CC(F)(F)F)c2ccccn12` [Compound 121]: the mortality at 50 ppm in series [1] (setting [6]) is at least 80%. Also, the mortality at 250 ppm in series [1] (setting [7]) is at least 80%. This compound also registered a mortality at 500 ppm in series [4] of at least 50%. Further, the mortality at 30 ppm in series [5] is at least 50%.
`COc1cccc(-c2ncc(C[n+]3c([O-])c(-c4ccccc4)c(=O)n4ccccc43)s2)c1` [Compound 520] had a mortality at 500 ppm in series [4] of at least 50%.
As for `O=c1c(-c2ccc(Cl)nc2)c([O-])[n+](CC(F)(F)F)c2ccccn12` [Compound 570], the mortality at 50 ppm in series [1] (setting [6]) and in series [3] was at least 80% in each case. The mortality at 250 ppm in series [1] (setting [7]) and in series [3] was at least 80% throughout.
Turning to `O=c1c(-c2ccc(F)nc2)c([O-])[n+](CC(F)(F)F)c2ccccn12` [Compound 571], in series [1] (setting [6]), the mortality at 50 ppm is at least 80%. Besides, the mortality at 250 ppm in series [1] (setting [7]) and in series [3] was at least 80% each time.
For `O=c1c(-c2ccccc2)c([O-])[n+](C2CCOCC2)c2ccccn12` [Compound 583], in series [1] (setting [7]), the mortality at 250 ppm was at least 80%.
As to `COc1cccc(-c2ccc(C[n+]3c([O-])c(-c4ccccc4)c(=O)n4ccccc43)cn2)c1` [Compound 599], the mortality at 50 ppm in series [1] (setting [6]) is at least 80%. Besides, the mortality at 500 ppm in series [4] was at least 50%. The mortality at 30 ppm in series [5] is at least 50%.
As to `COc1cccc(-c2ncc(C[n+]3c([O-])c(I)c(=O)n4ccccc43)s2)c1` [Compound 613, 2-hydroxy-3-iodo-1-[[2-(3-methoxyphenyl)-5-thiazolyl]methyl]-4-oxo-4H-pyrido[1,2-a]-pyrimidinium inner salt], in series [1] (setting [6]), the mortality at 50 ppm is at least 80%. Moreover, the mortality at 250 ppm in series [1] (setting [7]) and in series [3] was at least 80% in each case.
`O=C(c1c([O-])[n+](CC(F)(F)F)c2ccccn2c1=O)C(F)(F)F` [Compound 711, 2-hydroxy-4-oxo-3-(2,2,2-trifluoroacetyl)-1-(2,2,2-trifluoroethyl)-4H-pyrido[1,2-a]-pyrimidinium inner salt] showed a mortality at 50 ppm in series [3] of at least 80%.
In series [1], `O=c1c(C2CCc3ccccc32)c([O-])[n+](Cc2ccc(Cl)nc2)c2ccccn12` (stereo not drawn) [Compound 757] came in with a mortality at 50 ppm of at least 80% and a mortality at 250 ppm of at least 80%.
